Assay results from US12029796B2, “Fluorescent probes for silver ION detection” (THE HONG KONG UNIVERSITY OF SCIENCE AND TECHNOLOGY, priority 2017, dated 2024).
Read-outs that look alike come from different tables or passages of the source.

Key:
[1] = Fluorescent quantum yield in solid state and in solution; type: physicochemical; conditions: solid state
Description: (§1) The present compounds are strongly emissive in the solid state with good fluorescent quantum yields. The compounds are weakly emissive or non-emissive when dissolved in aqueous solutions. […] In contrast, when these compounds are dissolved, the solutions only emit faint light (Qy<1%). The compounds dissolve well in alcohols. The compounds can be modestly dissolved (for TPE-4TTZ, up 100 μM in DI-water) in the aqueous phase. Furthermore by the addition of NaOH solutions, the formed salts dissolve well in the aqueous phase (for TPE-4TTZ, up to 1 M in water).

[2] = Fluorescence turn-on sensing and titration of silver ions; conditions: for ratio [Ag^+]:[probe] at which PL intensity is saturated / maximum: probe 5 μM; for LOD (limit of detection) of silver ions / Linear Range of silver ion detection: probe 5 μM in DI-water, excitation 345 nm
From the text: The turn-on fluorescence response was instant. The detection of silver ions was highly sensitive and sharp intensity changes could be detected with the naked eye. DLS (Dynamic light scattering) measurement confirmed the formation of nanoparticles. […] This is likely due to the reduction of silver-tetrazole complexes by the strong electron-beam during TEM studies. These emissive silver-compound solid complexes are hardly soluble in a range of solvents, including DMSO, methanol, and water. NMR analysis of these complexes is not possible. The complexes are also resistant to acid/base treatment, or heating by a heat-gun.
In fluorescence spectroscopy, solutions containing silver ions behaved quite differently from solutions without silver ions in terms of intensity, with the ratio of intensity at maximum peak at 504 nm exceeding 400 times (FIGS. 3A-3D). […] By plotting the intensity of maximum intensive peaks against the ratio of ion concentrations, it was expected that the working curve for the quantitative detection of silver ions could be established. […] Meanwhile, the detection limit (LOD) of silver ions is estimated to be 40 nM (S/N=3 and n=11). With a further increase of [Ag^+], the intensity reaches a plateau.
Tetrazole-tagged AIE luminogen TPE-4TTZ (5 μM) undergoes a fluorescence turn-on response towards a solution of silver ions. The solutions can include organic solutions, aqueous solutions including natural water, wastes and/or biological buffer solutions. PL spectra were recorded on a Perkin-Elmer LS 55 spectrofluorometer.
The solutions included organic solutions, aqueous solutions including natural water, wastes and/or biological buffer solutions. For the same probes, the calibration curve varied a little in different solutions. UV spectra were measured on a Biochrom Libra S80PC double beams spectrometer. PL spectra were recorded on a Perkin-Elmer LS 55 spectrofluorometer.

[3] = Solubility in the aqueous phase; type: physicochemical
Description: as §1

[4] = Selectivity: fluorescence response to mercury ions
From the text: (§2) As selectivity is an important parameter for sensing technique, responses of these probes to other metal ions were examined. […] Mercury is reported to coordinate with the tetrazole group.
The Ag^+/Hg^2+ coordination-induced fluorescence can be pH-sensitive. For example, with respect to TPE-4TTZ, a series of tests were done in phosphate buffer solutions at different pH varying from 4 to 12. At pH lower than 4, the tetrazole moiety (pKa˜4-5) was largely in the protonated form and sparingly soluble in solution and, thus, aggregated. The aggregation elicited fluorescence with a different color from that of the silver complexes. Therefore, the turn-on detection is only possible in solutions with pH>4. […] Furthermore regarding the mercury detection, the FL response was significant only at the pH window (4˜7); when pH>8, the fluorescence turn-on was not observed anymore. […]
With reference to FIG. 7, tetrazole-tagged AIE luminogen TPE-4TTZ (10 μM) underwent a fluorescence turn-on response towards a solution of silver ions in the presence of other metal ions in phosphate aqueous solution (10 mM, pH 7.4). PL spectra were recorded on a Perkin-Elmer LS 55 spectrofluorometer. Tetrazole-tagged AIE luminogen TPE-4TTZ (10 μM) underwent a fluorescence turn-on response towards a solution of silver ions in the presence of other silver-binding molecules in phosphate aqueous solution (10 mM, pH 7.4). […]

[5] = Selectivity: fluorescence response to other metal ions
Description: as §2
With reference to FIG. 7, tetrazole-tagged AIE luminogen TPE-4TTZ (10 μM) underwent a fluorescence turn-on response towards a solution of silver ions in the presence of other metal ions in phosphate aqueous solution (10 mM, pH 7.4). PL spectra were recorded on a Perkin-Elmer LS 55 spectrofluorometer. Tetrazole-tagged AIE luminogen TPE-4TTZ (10 μM) underwent a fluorescence turn-on response towards a solution of silver ions in the presence of other silver-binding molecules in phosphate aqueous solution (10 mM, pH 7.4). In each example, the silver-binding molecule was added prior to the addition of the probes from a stock solution. The stock solution of the probe is 1 mM in ethanol. PL spectra were recorded on a Perkin-Elmer LS 55 spectrofluorometer.

[6] = pH dependence of Ag^+ induced fluorescence in phosphate buffer; conditions: phosphate buffer solutions
From the text: The Ag^+/Hg^2+ coordination-induced fluorescence can be pH-sensitive. For example, with respect to TPE-4TTZ, a series of tests were done in phosphate buffer solutions at different pH varying from 4 to 12. At pH lower than 4, the tetrazole moiety (pKa˜4-5) was largely in the protonated form and sparingly soluble in solution and, thus, aggregated. The aggregation elicited fluorescence with a different color from that of the silver complexes. Therefore, the turn-on detection is only possible in solutions with pH>4. When pH is from 5˜6, PL response is significant enough for a high resolution detection of silver ions. […] Furthermore regarding the mercury detection, the FL response was significant only at the pH window (4˜7); when pH>8, the fluorescence turn-on was not observed anymore. Thus, TPE-4TTZ is only sensitive to silver ions in basic solutions. Similar observations were made for the other tetrazole-tagged TPEs.

[7] = Interference of silver-binding reagents with silver sensing; conditions: TPE-4TTZ 5 μM, anions 100 equiv.
Description: Detection can be based on selective coordination involving electrostatic interactions. Tests were conducted to determine whether silver binding moieties (e.g., anions) might be another kind of interfering factor in the mixture. […] After a short while of shaking, the probe (10 eq.) was added. Each solution was gently mixed and then checked in a PL machine. Compared with the control group, the interfering reagents including amino acids and DNA/RNA bases were only weakly interfering with the silver-tetrazole sensing process. In other words, the tetrazole anions can snatch silver ions from these ligands and elicit a fluorescence turn-on. There were exceptions, in particular for strong silver-interacting structures. Cysteine, the sulfur-containing amino acid, blocked sensing by the strong S—Ag interaction. Similar results were seen from SCN^− and S2O3^2-, due to their stronger binding affinity towards Ag^+ than the tetrazole anion (CN4^−). In addition, ammonium solution blocked sensing by reducing Ag^+ into metallic silver.
With reference to FIG. […] PL spectra were recorded on a Perkin-Elmer LS 55 spectrofluorometer. […] In each example, the silver-binding molecule was added prior to the addition of the probes from a stock solution. The stock solution of the probe is 1 mM in ethanol. PL spectra were recorded on a Perkin-Elmer LS 55 spectrofluorometer.

[8] = cited from earlier work
[9] = phosphate aqueous solution 10 mM, pH 7.4

Row | fluorescent quantum yield (Qy) [1] | solubility ([3]; deionised water, DI-water, read-out: solubility in the aqueous phase) | solubility ([3]; water with added NaOH solution, aqueous buffer, water, after addition of NaOH solution, read-out: solubility of the formed salt in the aqueous phase) | fluorescence on mixing with different anions without Ag^+ [7] | Compound | ratio [Ag^+]:[probe] at which PL intensity is saturated / maximum [2] | LOD (limit of detection) of silver ions [2] | Linear Range of silver ion detection [2] | fluorescence response on addition of silver ions ([2]; TPE-4TTZ 5 μM, silver ions 500 μM, UV 350 nm) | PL response to mercury ions [4, 9] | pH window with significant FL response to mercury ([4]; phosphate buffer solutions, pH 4 to 12) | PL response to Mg^2+, Mn^2+, Zn^2+, Al^3+ etc. [5, 9] | effect of Fe^2+, Fe^3+, Co^2+ and Cu^2+ on fluorescence ([5]; same conditions) | pH at which maximum PL response to silver is relatively stable [6] | pH at which turn-on detection of silver is possible ([6]; pH 4 to 12) | pKa of tetrazole moiety [8]
1 | 39.6% | – | – | – | c1ccc(C(=C(c2ccccc2)c2ccc(-c3nnn[nH]3)cc2)c2ccccc2)cc1 [TPE-1TTZ] | 0.6 | 1.5 nM | 0.1~3 μM | – | – | – | – | – | – | – | –
2 | 36.2% | – | – | – | c1ccc(C(=C(c2ccc(-c3nnn[nH]3)cc2)c2ccc(-c3nnn[nH]3)cc2)c2ccccc2)cc1 [TPE-2TTZ] | 2.6 | 3.0 nM | 0.2~10 μM | – | – | – | – | – | – | – | –
3 | 76.8% | ≤ 0.1 mM | ≤ 1000 mM | did not generate strong fluorescence | c1cc(-c2nnn[nH]2)ccc1C(=C(c1ccc(-c2nnn[nH]2)cc1)c1ccc(-c2nnn[nH]2)cc1)c1ccc(-c2nnn[nH]2)cc1 [TPE-4TTZ] | ~4 | 2.3 nM | 0.04~15 μM | highly emissive | significant enhancement of PL intensity | 4˜7 | hardly increased the PL intensity | quench the weak fluorescence | > 6 | > 4 | 4-5
